In patent publication US20190374650A1, “COMPOSITIONS AND METHODS FOR DELIVERY OF POLYMER/BIOMACROMOLECULE CONJUGATES” (THE REGENTS OF THE UNIVERSITY OF MICHIGAN, priority 2017, published 2019):
Where no end group is shown, it is not given here.

Columns and labels:
BMDCs [1] = assay: BMDC activation: expression of co-stimulatory markers CD86 and CD40 by flow cytometry; assay type: cell-based, C57BL/6 mice; settings: conjugate alone, w/o CpG; 1% modification, 2 nmol SIINFEKL/ml, 24 h
Experimental: (§1) Femur and tibia were harvested from C57BL/6 mice. Cells were collected by flushing bone marrow with a syringe, passing the cell suspension through a cell strainer (mesh size=40 μm), followed by centrifugation (200×g, 5 min). Cells were then seeded into non-tissue culture treated petri-dishes at a density of 2×10^6 cells/ml in DC culture media (RPMI 1640 supplemented with 10% FBS, 1% penicillin-streptomycin, 50 μM β-mercaptoethanol, and 20 ng/ml GM-CSF), cultured at 37° C. with 5% CO2. Culture media were refreshed on days 3, 6, and 8, and BMDCs were used on days 8-12.
(§2) BMDCs were seeded at a density of 8×10^5 cells/ml into 12-well plates. Cells were incubated with PGA120k-MAL-CSSSIINFEKL or PGA120k-SS-CSSSIINFEKL (1% modification of carboxyl groups, 2 nmol SIINFEKL/ml) w/or w/o 0.5 μg/ml CpG in 1 ml BMDC culture media for 24 h. Cells were harvested, blocked with anti-CD16/32 at room temperature for 10 min, and then stained with anti-CD11c-PECy7, anti-CD40-APC, anti-CD86-PE, or anti-SIINFEKL-H-2K^b-PE at room temperature for 30 min. Finally, cells were washed and resuspended in 2 μg/ml DAPI solution and analyzed by a flow cytometer (Cyan 5, Beckman Coulter).

BMDCs [2] = assay: Antigen cross-presentation: presentation of SIINFEKL on DCs by flow cytometry; assay type: cell-based, C57BL/6 mice; settings: 2 nmol SIINFEKL/ml, 24 h
Experimental: as §1, §2

[3] = test system: neo-antigen-specific CD8+ T cells; assay: Intratumoral injection into established MC38 tumors: tetramer staining of PBMCs; assay type: in vivo, C57BL/6 mice; settings: MC38 tumor-bearing mice, day 7 after first injection
Experimental: (§3) C57BL/6 mice were subcutaneously injected with 5×10^5 MC38 colon carcinoma cells (a gift from W. Zou, University of Michigan) into the right flank and randomly sorted for treatment after 9 days when the tumor volumes reached approximately 50-70 mm^3. Fifty μl PBS solution of ASMTNMELM, CpG, ASMTNMELM+CpG, PEI-SS-CSSASMTNMELM+CpG (10 μg ASMTNMELM and 15 μg CpG), or blank PBS (50 μl) were directly injected into tumor every week for total three times. PBMCs were collected on day 7 after the first sample injection and tetramer staining was performed for flow cytometric analysis of neo-antigen-specific CD8+ T cells. The sizes of the tumors were measured every three days using a digital caliper, and the tumor volume was estimated by ellipsoidal calculation as V=(width)^2×length×π/6. The mice were euthanized when the tumors reached the maximum permitted size (1.5 cm in any dimension) or ulcerations occurred.

MC38 tumors = assay: In vivo cancer immunotherapy against established MC38 tumors: tumor volume and survival; design: species or system C57BL/6 mice; settings: three weekly intratumoral injections
Experimental: as §3

OT-I T cells = assay: Proliferation of antigen-specific CD8+ T cells in vitro (CFSE dilution); assay type: cell-based, OT-I mice; settings: BMDCs pre-activated 24 h, 0.5 nmol SIINFEKL/ml, in the presence of 0.5 μg/ml CpG; co-culture 3 days
Experimental: SIINFEKL-specific CD8^+ T cells were isolated from OT-I mice using an EasySep™ Mouse CD8^+ T Cell Isolation Kit (STEMCELL Technologies, Cambridge, Mass.), and stained by CFSE. 5×10^4 BMDCs were seeded into 96-well plates, and incubated with PGA120k conjugates (1% modification of carboxyl groups, 0.5 nmol SIINFEKL/ml) w/or w/o 0.5 μg/ml CpG for 24 h. BMDCs were then washed by PBS, followed by co-culture with 5×10^4 CFSE-labeled OT-I T cells for 3 days. Cells were then harvested, blocked with anti-CD16/32, and stained with anti-CD8-APC on ice for 30 min. Cells were washed and resuspended in 2 μg/ml DAPI solution and analyzed for fluorescence dilutions of CFSE by flow cytometry.

BMDCs [4] = assay: BMDC activation: IL-12p70 secretion (ELISA); assay type: cell-based; settings: alone, w/o CpG; 2 μg/ml, 2 h
Experimental: (§4) BMDCs were plated at a density of 1×10^5 cells/well in 96 well plates in RPMI 1640 supplemented with 10% FBS and 1% PS, and incubated overnight at 37° C. under 5% CO2. For cytotoxicity assessment, cells were incubated with either free form (CSSASMNTMELM) or PEI conjugate (PEI-SS-CSSASMTNMELM) of the neo-antigen peptide for 24 h at concentrations of 1, 5, 10, 20, 50, 100 μg/ml. The viability was measured by adding CCK-8 to each well of the plate according to manufacturer's instruction followed by absorbance measurement at 450 nm using a microplate reader after 2 h incubation. Relative viability was calculated as to the ratio of the absorbance to the non-sample treated cells (0 μg/ml). To investigate BMDC activation, cells were treated with PBS or PEI-SS-CSSASMTNMELM, PBS+CpG, PEI-SS-CSSASMTNMELM+CpG (2 μg/ml PEI-SS-CSSASMTNMELM and 1 μg/ml CpG) for 2 h. The fresh cell culture media were placed after sample washing and collected for cytokine analysis after further 24 h incubation. The concentration of IL-12p70 in the media was measured using ELISA kit by following the manufacturer's instruction.

BMDCs [5] = assay: BMDC cytotoxicity (CCK-8 viability); assay type: cell-based; settings: 24 h incubation, concentration as high as 100 μg/ml
Experimental: as §4

## PGA-SS-CSSSIINFEKL: 120 kD poly(L-glutamic acid) linked by reduction-sensitive disulfide bond to peptide CSSSIINFEKL, 1% modification of carboxyl groups (not fully specified; poly(L-glutamic acid) 120 kD disulfide conjugate)
BMDCs [1]
  CD40 expression in DCs: slightly increased CD40 expression
BMDCs [2]; w/o CpG, compared with soluble peptide and PGA-MAL-CSSSIINFEKL
  presentation of SIINFEKL on DCs: significantly higher presentation of SIINFEKL on DCs
BMDCs [2]; with 0.5 μg/ml CpG
  presentation of SIINFEKL on DCs: further increased by CpG

## ASMTNMELM [neo-antigen]
[3]
  neo-antigen-specific CD8+ T cell response: failed to elicit
MC38 tumors
  time by which all animals succumbed to tumors: ≤ 50 days

## PGA-MAL-CSSSIINFEKL: 120 kD poly(L-glutamic acid) linked by non-sensitive maleimide-thiol bond to peptide CSSSIINFEKL, 1% modification of carboxyl groups (not fully specified; poly(L-glutamic acid) 120 kD maleimide-thiol conjugate)
BMDCs [1]
  activation of DCs (expression of CD86 and CD40): failed to activate DCs

## SIINFEKL [soluble peptide, model antigen peptide]
OT-I T cells
  proliferation of OT-I T cells: > 60%

## 5′-tccatgacgttcctgacgtt-3′ [CpG]
[3]
  neo-antigen-specific CD8+ T cell response: failed to elicit
MC38 tumors
  survival rates: ~20%
  tumor progression: slowed tumor progression

## PEI-SS-CSSASMTNMELM: PEI (MW 25,000), PEGylated, disulfide-linked via SPDP to neo-antigen peptide CSSASMTNMELM (PEGylated PEI disulfide-linked via SPDP)
BMDCs [4]
  activation of BMDCs (secretion of IL-12p70): failed to induce activation of BMDCs
BMDCs [5]
  BMDC viability: maintained their viability

## CSSASMTNMELM [free peptide, CSSASMTNMELM]
BMDCs [5]
  BMDC viability: maintained their viability
